Where two headings read alike, the source gives them in different places.
Experiments:
PrP^sc = type: biochemical, bovine; details: for location of PrP^sc bands (starting supernatant or pellet) after centrifugation: 2.5, 5, 10 mg added to 50 μl PrP^sc sample, 37° C. 1 h; for location of PrP^sc bands (starting supernatant or pellet) after centrifugation / crosslinking and precipitation of PrP: FIG. 4; for crosslinking and precipitation of PrP: simple centrifuge, no ultracentrifugation
PrP^res = type: biochemical, human

## NCCCNCCCN [bis-3-aminopropylamine]
PrP^sc; 130-1040 μg added to 5 μl PrP^sc, 30 min room temperature, pellet supernatant, FIG. 6
  apparent molecular mass of the prion protein bands compared to a control without molecule: induces an increase in the apparent molecular mass of the 3 prion protein bands
PrP^sc; 130-1040 μg, 12 000 rpm 5 min, FIG. 6
  precipitation of the prion protein on centrifugation: the prion protein precipitates

## CN[C@@H]1[C@H](O[C@H]2[C@H](O[C@H]3[C@H](O)[C@@H](O)[C@H](NC(=N)N)[C@@H](O)[C@@H]3NC(=N)N)O[C@@H](C)[C@]2(O)CO)O[C@@H](CO)[C@H](O)[C@H]1O [dihydrostreptomycin sesquisulfate]
PrP^sc; 12 000 rpm 5 min
  location of PrP^sc bands (starting supernatant or pellet) after centrifugation: the PrP^sc material is found in the pellet
PrP^sc
  crosslinking and precipitation of PrP: induces crosslinking of PrP which allows complete precipitation thereof

## [H]/N=C(/N)N[C@H]1[C@H](O)[C@@H](O)[C@H](O[C@@H]2O[C@@H](C)[C@](O)(C=O)[C@H]2O[C@@H]2O[C@@H](CO)[C@H](O)[C@@H](O)[C@@H]2NC)[C@@H](N/C(N)=N\[H])[C@@H]1O [streptomycin]
PrP^sc; 12 000 rpm 5 min
  location of PrP^sc bands (starting supernatant or pellet) after centrifugation: the PrP^sc material is found in the pellet
PrP^sc
  crosslinking and precipitation of PrP: induces crosslinking of PrP which allows complete precipitation thereof

## NCCNCCNCCN [triethylenetetramine]
PrP^sc; 105-840 μg TET added to 5 μl PrP^sc (250 μg brain), supernatant, FIG. 5
  apparent molecular mass of the prion protein bands compared to a control without molecule: induces an increase in the apparent molecular mass of the prion protein
PrP^sc; 105-840 μg TET, FIG. 5
  crosslinking of PrP versus dose: a crosslinking of PrP proportional to the dose of TET

## heparin
PrP^res
  sensitivity and specificity of detection of PrP^res of lymphoid origin in blood samples: confirms the sensitivity and the specificity of detection of PrP^res

From patent publication US7566530B2 (priority 2004, dated 2009)
